# Measurements published in BindingDB's records for doi:10.1021/acs.jmedchem.9b00500 (2019).
# Bridge positions count the residues as written; N and C are the ends. Square brackets hold non-standard residues; d marks the D form. Peptide text beside a SMILES is read from it. I, II: the chains in the order shown. Phe(3,4-Cl2) = N[C@@H](Cc1ccc(Cl)c(Cl)c1)C(=O)O; tBuAla = CC(C)(C)C[C@H](N)C(=O)O; hLeu = CC(C)CC[C@H](N)C(=O)O; Nle = CCCC[C@H](N)C(=O)O
# Target: Frizzled-7 (Homo sapiens, UniProt O75084)
# Assay: Binding affinity to recombinant human Frizzled-7 (Gln33 to Leu185 residues)/human IgG1 chimeric protein expressed in CHO cells assessed as […] by SPR assay
row,SMILES,Kd
1,CC[C@H](C)[C@H](NC(=O)[C@H](Cc1cnc[nH]1)NC(=O)[C@H](CSSC[C@H](NC(=O)[C@H](Cc1c[nH]c2ccccc12)NC(=O)[C@H](Cc1ccccc1)NC(=O)[C@H](CCC(=O)O)NC(=O)[C@H](CC(C)C)NC(=O)[C@H](CC(=O)O)NC(=O)[C@H](CC(=O)O)NC(=O)[C@H](CO)NC(C)=O)C(=O)N[C@@H](Cc1cnc[nH]1)C(=O)N[C@H](C(=O)N[C@@H](CCSC)C(=O)N[C@@H](Cc1ccc(O)cc1)C(N)=O)[C@@H](C)CC)NC(=O)[C@H](Cc1c[nH]c2ccccc12)NC(=O)[C@H](Cc1ccccc1)NC(=O)[C@H](CCC(=O)O)NC(=O)[C@H](CC(C)C)NC(=O)[C@H](CC(=O)O)NC(=O)[C@H](CC(=O)O)NC(=O)[C@H](CO)NC(C)=O)C(=O)N[C@@H](CCSC)C(=O)N[C@@H](Cc1ccc(O)cc1)C(N)=O (I: Ac-SDDLEFWCHIMY-NH2 / II: Ac-SDDLEFWCHIMY-NH2; disulfide I:8-II:8),0.96 nM
2,CC[C@H](C)[C@H](NC(=O)[C@H](Cc1cnc[nH]1)NC(=O)[C@H](CSSCC[C@H](NC(=O)[C@H](Cc1c[nH]c2ccccc12)NC(=O)[C@H](CC(C)C)NC(=O)[C@H](CCC(=O)O)NC(=O)[C@H](CC(C)C)NC(=O)[C@H](CC(=O)O)NC(=O)[C@H](CC(=O)O)NC(=O)[C@@H](NC(C)=O)[C@@H](C)O)C(=O)N[C@@H](Cc1cnc[nH]1)C(=O)N[C@H](C(=O)N[C@@H](CCSC)C(=O)N[C@@H](Cc1ccc(O)cc1)C(N)=O)[C@@H](C)CC)NC(=O)[C@H](Cc1c[nH]c2ccccc12)NC(=O)[C@H](CC(C)C)NC(=O)[C@H](CCC(=O)O)NC(=O)[C@H](CC(C)C)NC(=O)[C@H](CC(=O)O)NC(=O)[C@H](CC(=O)O)NC(=O)[C@@H](NC(C)=O)[C@H](C)O)C(=O)N[C@@H](CCSC)C(=O)N[C@@H](Cc1ccc(O)cc1)C(N)=O,6.3 nM
3,"CSCC[C@H](NC(=O)[C@@H](NC(=O)[C@H](Cc1cnc[nH]1)NC(=O)[C@H](CSSC[C@H](NC(=O)[C@H](Cc1c[nH]c2ccccc12)NC(=O)[C@H](Cc1ccccc1)NC(=O)[C@H](CCC(=O)O)NC(=O)[C@H](CC(C)C)NC(=O)[C@H](CC(=O)O)NC(=O)[C@H](CC(=O)O)NC(=O)[C@H](CO)NC(C)=O)C(=O)N[C@@H](Cc1cnc[nH]1)C(=O)N[C@H](C(=O)N[C@@H](CCSC)C(=O)N[C@@H](Cc1ccc(Cl)c(Cl)c1)C(N)=O)C(C)C)NC(=O)[C@H](Cc1c[nH]c2ccccc12)NC(=O)[C@H](Cc1ccccc1)NC(=O)[C@H](CCC(=O)O)NC(=O)[C@H](CC(C)C)NC(=O)[C@H](CC(=O)O)NC(=O)[C@H](CC(=O)O)NC(=O)[C@H](CO)NC(C)=O)C(C)C)C(=O)N[C@@H](Cc1ccc(Cl)c(Cl)c1)C(N)=O (I: Ac-SDDLEFWCHVM[Phe(3,4-Cl2)]-NH2 / II: Ac-SDDLEFWCHVM[Phe(3,4-Cl2)]-NH2; disulfide I:8-II:8)",0.9 nM
4,CSCC[C@H](NC(=O)[C@@H](CC1CCC1)NC(=O)[C@H](Cc1cnc[nH]1)NC(=O)[C@H](CSSC[C@H](NC(=O)[C@H](Cc1c[nH]c2ccccc12)NC(=O)[C@H](Cc1ccccc1)NC(=O)[C@H](CCC(=O)O)NC(=O)[C@H](CC(C)C)NC(=O)[C@H](CC(=O)O)NC(=O)[C@H](CC(=O)O)NC(=O)[C@H](CO)NC(C)=O)C(=O)N[C@@H](Cc1cnc[nH]1)C(=O)N[C@H](CC1CCC1)C(=O)N[C@@H](CCSC)C(=O)N[C@@H](Cc1ccc(O)cc1)C(N)=O)NC(=O)[C@H](Cc1c[nH]c2ccccc12)NC(=O)[C@H](Cc1ccccc1)NC(=O)[C@H](CCC(=O)O)NC(=O)[C@H](CC(C)C)NC(=O)[C@H](CC(=O)O)NC(=O)[C@H](CC(=O)O)NC(=O)[C@H](CO)NC(C)=O)C(=O)N[C@@H](Cc1ccc(O)cc1)C(N)=O,2.1 nM
5,CCCC[C@H](NC(=O)[C@H](CC(=O)O)NC(=O)[C@H](CC(=O)O)NC(=O)[C@H](CO)NC(C)=O)C(=O)N[C@@H](CCC(=O)O)C(=O)N[C@@H](Cc1ccccc1)C(=O)N[C@@H](Cc1c[nH]c2ccccc12)C(=O)N[C@@H](CSSC[C@H](NC(=O)[C@H](Cc1c[nH]c2ccccc12)NC(=O)[C@H](Cc1ccccc1)NC(=O)[C@H](CCC(=O)O)NC(=O)[C@H](CCCC)NC(=O)[C@H](CC(=O)O)NC(=O)[C@H](CC(=O)O)NC(=O)[C@H](CO)NC(C)=O)C(=O)N[C@@H](Cc1cnc[nH]1)C(=O)N[C@H](C(=O)N[C@@H](CCSC)C(=O)N[C@@H](Cc1ccc(O)cc1)C(N)=O)C(C)C)C(=O)N[C@@H](Cc1cnc[nH]1)C(=O)N[C@H](C(=O)N[C@@H](CCSC)C(=O)N[C@@H](Cc1ccc(O)cc1)C(N)=O)C(C)C (I: Ac-SDD[Nle]EFWCHVMY-NH2 / II: Ac-SDD[Nle]EFWCHVMY-NH2; disulfide I:8-II:8),23 nM
6,CSCC[C@H](NC(=O)[C@@H](NC(=O)[C@H](Cc1cnc[nH]1)NC(=O)[C@H](CSSC[C@H](NC(=O)[C@H](Cc1c[nH]c2ccccc12)NC(=O)[C@H](Cc1ccccc1)NC(=O)[C@H](CCC(=O)O)NC(=O)[C@H](CCC(C)C)NC(=O)[C@H](CC(=O)O)NC(=O)[C@H](CC(=O)O)NC(=O)[C@H](CO)NC(C)=O)C(=O)N[C@@H](Cc1cnc[nH]1)C(=O)N[C@H](C(=O)N[C@@H](CCSC)C(=O)N[C@@H](Cc1ccc(O)cc1)C(N)=O)C(C)C)NC(=O)[C@H](Cc1c[nH]c2ccccc12)NC(=O)[C@H](Cc1ccccc1)NC(=O)[C@H](CCC(=O)O)NC(=O)[C@H](CCC(C)C)NC(=O)[C@H](CC(=O)O)NC(=O)[C@H](CC(=O)O)NC(=O)[C@H](CO)NC(C)=O)C(C)C)C(=O)N[C@@H](Cc1ccc(O)cc1)C(N)=O (I: Ac-SDD[hLeu]EFWCHVMY-NH2 / II: Ac-SDD[hLeu]EFWCHVMY-NH2; disulfide I:8-II:8),124 nM
7,CSCC[C@H](NC(=O)[C@@H](NC(=O)[C@H](Cc1cnc[nH]1)NC(=O)[C@H](CSSC[C@H](NC(=O)[C@H](Cc1c[nH]c2ccccc12)NC(=O)[C@H](Cc1ccccc1)NC(=O)[C@H](CCC(=O)O)NC(=O)[C@H](CC(C)(C)C)NC(=O)[C@H](CC(=O)O)NC(=O)[C@H](CC(=O)O)NC(=O)[C@H](CO)NC(C)=O)C(=O)N[C@@H](Cc1cnc[nH]1)C(=O)N[C@H](C(=O)N[C@@H](CCSC)C(=O)N[C@@H](Cc1ccc(O)cc1)C(N)=O)C(C)C)NC(=O)[C@H](Cc1c[nH]c2ccccc12)NC(=O)[C@H](Cc1ccccc1)NC(=O)[C@H](CCC(=O)O)NC(=O)[C@H](CC(C)(C)C)NC(=O)[C@H](CC(=O)O)NC(=O)[C@H](CC(=O)O)NC(=O)[C@H](CO)NC(C)=O)C(C)C)C(=O)N[C@@H](Cc1ccc(O)cc1)C(N)=O (I: Ac-SDD[tBuAla]EFWCHVMY-NH2 / II: Ac-SDD[tBuAla]EFWCHVMY-NH2; disulfide I:8-II:8),0.95 nM
